Results from publication PMC7413254 (Nature Communications, 2020).
Like-named read-outs stand apart in the source and are kept apart here.

Experiments:
PfCRT^Ecu1110 [1] = biological target: T1, PfCRT^Ecu1110 (Plasmodium falciparum, UniProt Q9N623, A220S/I356L/K76T/N326D); test: [3H]CQ uptake into Xenopus oocytes, cis-inhibition by unlabelled solute; type: cell-based
Method in brief: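 Inward transport into oocyte cytosol from pH 5.5 medium models PfCRT efflux from the acidic digestive vacuole. Incubation 1.5 h, 27.5 °C; termination by ice-cold washes; lysate radioactivity counted.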

non-expressing oocytes = type: cell-based, Xenopus laevis; conditions: total [3H]CQ transport; for Uptake of [3H]CQ (% non-expressing oocyte control), trans-stimulation: non-expressing oocytes, normalised to the oocyte type control; for Uptake of [3H]CQ (% PfCRTDd2 control), trans-stimulation, non-expressing oocytes: mean ± SEM, SEM
Method in brief: (§1)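 Oocytes (ten per treatment, ≥4 independent frogs/days) were preloaded by injecting VF-6 in 25 nL ND96 at pH 5.0, 5.5, 6.0 or 7.0, or Na^+-free choline buffer, then uptake run 1.5 h, 27.5 °C, ND96 pH 5.5 by default. Internal concentrations assumed ~400 nL oocyte volume.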

PfCRT^3D7 = PfCRT^3D7 (Plasmodium falciparum, UniProt Q8IBZ9); test: cell-based; type: cell-based
Method in brief: as §1

PfCRT^Dd2 = PfCRT^Dd2 (Plasmodium falciparum, UniProt Q9N623, A220S/I356T/K76T/M74I/N326S/N75E/Q271E/R371I); test: cell-based; type: cell-based; conditions: […]; for activity at 45000 µM: [test solute]i = 45 mM (30 mM for some solutes due to solubility)
Method in brief: as §1

PfCRT^Ecu1110 [2] = biological target: T1, PfCRT^Ecu1110; test: cell-based; type: cell-based; conditions: […]
Method in brief: as §1

PfNT1 = biological target: T2, PfNT1 (Plasmodium falciparum, UniProt Q8IDM6); test: cell-based; type: cell-based; conditions: for activity at 5000 µM: total [3H]CQ transport
T2 construct: expressed in transfected cells; host or cells: Xenopus laevis oocytes (stage V-VI), cRNA-injected
Method in brief: as §1

PfCRT [3] = test: Test of solutes as potential co-substrates for influx of VF-6 via PfCRT into the oocyte; type: cell-based, Plasmodium falciparum; set-up: key: X: Compounds that have been tested as potential co-substrates but are not required for influx of VF-6 via PfCRT into the oocyte; conditions: X = tested
PfCRT [4] = test: Potential co-substrates tested for influx of VF-6 via PfCRT into the oocyte; type: cell-based, Plasmodium falciparum; set-up: key: X: Compounds that have been tested as potential co-substrates but are not required for influx of VF-6 via PfCRT into the oocyte
[5] = read-out: [3H]CQ transport (% PfCRTEcu1110 control), cis-inhibition, PfCRTEcu1110, SEM

T2 sequence (Q8IDM6 whole entry): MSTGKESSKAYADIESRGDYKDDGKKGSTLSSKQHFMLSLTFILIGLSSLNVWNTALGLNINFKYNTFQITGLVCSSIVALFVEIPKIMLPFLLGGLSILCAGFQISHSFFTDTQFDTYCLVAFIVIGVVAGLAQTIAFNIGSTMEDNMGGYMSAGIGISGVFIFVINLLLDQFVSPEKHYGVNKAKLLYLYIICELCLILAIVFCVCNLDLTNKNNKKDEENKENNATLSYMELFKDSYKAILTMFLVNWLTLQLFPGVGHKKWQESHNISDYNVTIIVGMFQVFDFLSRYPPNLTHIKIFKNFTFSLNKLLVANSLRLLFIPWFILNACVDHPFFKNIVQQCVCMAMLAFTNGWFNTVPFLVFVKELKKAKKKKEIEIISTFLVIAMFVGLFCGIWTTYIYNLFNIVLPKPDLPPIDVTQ
Chain of PfCRT^Dd2 (Q9N623 whole entry A220S/I356T/K76T/M74I/N326S/N75E/Q271E/R371I): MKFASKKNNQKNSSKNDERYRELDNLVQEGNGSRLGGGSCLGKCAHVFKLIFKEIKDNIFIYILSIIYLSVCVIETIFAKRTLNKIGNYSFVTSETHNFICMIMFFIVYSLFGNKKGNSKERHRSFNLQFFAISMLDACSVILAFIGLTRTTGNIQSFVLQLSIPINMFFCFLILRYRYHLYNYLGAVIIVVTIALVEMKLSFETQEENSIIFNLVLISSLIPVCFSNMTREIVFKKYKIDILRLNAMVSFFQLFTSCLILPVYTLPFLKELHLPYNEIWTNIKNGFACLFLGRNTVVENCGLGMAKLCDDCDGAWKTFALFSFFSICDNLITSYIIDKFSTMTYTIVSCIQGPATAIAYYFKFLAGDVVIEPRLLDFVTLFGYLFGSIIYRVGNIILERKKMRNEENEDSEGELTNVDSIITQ
Chain of PfCRT^3D7 (Q8IBZ9 59-398): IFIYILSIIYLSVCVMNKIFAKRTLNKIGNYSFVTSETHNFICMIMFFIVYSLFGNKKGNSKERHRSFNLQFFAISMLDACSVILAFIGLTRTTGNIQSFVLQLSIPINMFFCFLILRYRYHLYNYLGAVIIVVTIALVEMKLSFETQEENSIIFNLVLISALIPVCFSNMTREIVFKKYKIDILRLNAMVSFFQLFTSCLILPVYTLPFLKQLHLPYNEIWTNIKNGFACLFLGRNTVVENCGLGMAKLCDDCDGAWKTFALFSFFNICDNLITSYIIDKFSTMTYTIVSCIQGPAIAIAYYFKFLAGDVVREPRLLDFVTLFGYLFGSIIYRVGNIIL
T1 sequence (Q9N623 whole entry A220S/I356L/K76T/N326D): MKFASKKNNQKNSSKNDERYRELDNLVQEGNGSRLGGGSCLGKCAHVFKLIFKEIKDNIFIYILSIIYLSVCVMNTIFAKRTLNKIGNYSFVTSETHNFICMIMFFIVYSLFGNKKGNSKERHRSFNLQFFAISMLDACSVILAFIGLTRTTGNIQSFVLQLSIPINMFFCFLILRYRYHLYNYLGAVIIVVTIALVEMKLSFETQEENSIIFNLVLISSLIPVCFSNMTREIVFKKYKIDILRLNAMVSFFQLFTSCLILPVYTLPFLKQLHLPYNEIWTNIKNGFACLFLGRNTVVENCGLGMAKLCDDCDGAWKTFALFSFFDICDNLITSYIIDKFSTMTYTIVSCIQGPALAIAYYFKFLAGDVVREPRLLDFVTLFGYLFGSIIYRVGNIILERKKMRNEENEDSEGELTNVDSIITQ

**Q.** What does the source list for CC(C)C[C@H](N)C(=O)O [L-leucine]?
**A.** inhibition at 2000 µM (PfCRT^Ecu1110 [1]; read-out: Uptake of [3H]CQ (% PfCRTEcu1110 control), cis-inhibition): 100 ± 3.2%; inhibition at 500 µM (PfCRT^Ecu1110 [1]; [5]): 30 ± 1.5%; inhibition at 1000 µM (PfCRT^Ecu1110 [1]; [5]): 29 ± 0.6%; inhibition at 2000 µM (PfCRT^Ecu1110 [1]; [5]): 30 ± 0.7%; Uptake of [3H]CQ (% non-expressing oocyte control), trans-stimulation (non-expressing oocytes; [test solute]i = 5 mM): 100 ± 3.2 % non-expressing oocyte control; Uptake of [3H]CQ (% non-expressing oocyte control), trans-stimulation (non-expressing oocytes; [test solute]i = 45 mM (30 mM for some solutes due to solubility)): 100 ± 3.3 % non-expressing oocyte control; Uptake of [3H]CQ (% PfCRTDd2 control), trans-stimulation, non-expressing oocytes (non-expressing oocytes; [test solute]i = 5 mM (intracellular)): 3.2 ± 0.08 % PfCRTDd2 control; Uptake of [3H]CQ (% PfCRTDd2 control), trans-stimulation, non-expressing oocytes (non-expressing oocytes; [test solute]i = 45 mM (intracellular; 30 mM for some solutes due to solubility)): 3.2 ± 0.05 % PfCRTDd2 control; activity at 5000 µM (PfCRT^3D7; PfCRT3D7 oocytes, [test solute]i = 5 mM, total [3H]CQ transport, normalised to the oocyte type control, read-out: Uptake of [3H]CQ (% PfCRT3D7 control), trans-stimulation): 100 ± 2.4%; [3H]CQ transport (% PfCRT3D7 control), trans-stimulation, PfCRT3D7 (PfCRT^3D7; SEM): 0.3 ± 0.02 % PfCRT3D7 control; activity at 5000 µM (PfCRT^3D7; [test solute]i = 5 mM (intracellular), PfCRT3D7 oocytes, normalised to oocyte type control, read-out: PfCRT-mediated [3H]CQ transport, trans-stimulation (% PfCRT3D7 control)): 98 ± 3.4%; activity at 45000 µM (PfCRT^3D7; SEM, read-out: Uptake of [3H]CQ (% PfCRTDd2 control), trans-stimulation, PfCRT3D7): 3.2 ± 0.04%; activity at 45000 µM (PfCRT^3D7; read-out: PfCRT-mediated [3H]CQ transport, trans-stimulation (% PfCRT3D7 control)): 95 ± 4.1%; activity at 45000 µM (PfCRT^3D7; read-out: Uptake of [3H]CQ (% PfCRT3D7 control), trans-stimulation): 97 ± 2.8%; activity at 5000 µM (PfCRT^3D7; total [3H]CQ transport, [test solute]i = 5 mM (intracellular), mean ± SEM, SEM, read-out: Uptake of [3H]CQ (% PfCRTDd2 control), trans-stimulation, PfCRT3D7): 3.3 ± 0.03%; activity at 5000 µM (PfCRT^Dd2; pH 5.5, read-out: PfCRT-mediated [3H]CQ transport, trans-stimulation (% PfCRTDd2 control), [test solute]i = 5 mM (intracellular), PfCRTDd2 oocytes, normalised to oocyte type control): 95 ± 3.4%; activity at 5000 µM (PfCRT^Dd2; pH 5.5, read-out: Uptake of [3H]CQ (% PfCRTDd2 control), trans-stimulation, PfCRTDd2, total [3H]CQ transport, [test solute]i = 5 mM (intracellular), mean ± SEM, SEM): 97 ± 0.7%; activity at 5000 µM (PfCRT^Dd2; pH 5.5, read-out: Uptake of [3H]CQ (% PfCRTDd2 control), trans-stimulation, PfCRTDd2 oocytes, [test solute]i = 5 mM, total [3H]CQ transport, normalised to the oocyte type control): 97 ± 0.7%; activity at 45000 µM (PfCRT^Dd2; pH 5.5, read-out: Uptake of [3H]CQ (% PfCRTDd2 control), trans-stimulation, PfCRTDd2 oocytes, total [3H]CQ transport, normalised to the oocyte type control): 98 ± 2.2%; activity at 5000 µM (PfCRT^Dd2; pH 5.5, read-out: [3H]CQ transport (% PfCRTDd2 control), trans-stimulation, PfCRTDd2, trans-stimulation, [test solute]i = 5 mM (injected), PfCRT-mediated component (background subtracted), mean ± SEM, SEM): 95 ± 3.4%; activity at 45000 µM (PfCRT^Dd2; pH 5.5, read-out: [3H]CQ transport (% PfCRTDd2 control), trans-stimulation, PfCRTDd2, trans-stimulation, PfCRT-mediated component (background subtracted), mean ± SEM, SEM): 96 ± 2.9%; activity at 5000 µM (PfCRT^Ecu1110 [2]; pH 5.5, read-out: PfCRT-mediated [3H]CQ transport, trans-stimulation (% PfCRTEcu1110 control), [test solute]i = 5 mM (intracellular), PfCRTEcu1110 oocytes, normalised to oocyte type control): 96 ± 2.6%; activity at 5000 µM (PfCRT^Ecu1110 [2]; pH 5.5, read-out: Uptake of [3H]CQ (% PfCRTEcu1110 control), trans-stimulation, PfCRTEcu1110 oocytes, [test solute]i = 5 mM, total [3H]CQ transport, normalised to the oocyte type control): 98 ± 3.2%; activity at 45000 µM (PfCRT^Ecu1110 [2]; pH 5.5, read-out: Uptake of [3H]CQ (% PfCRTEcu1110 control), trans-stimulation, PfCRTEcu1110 oocytes, [test solute]i = 45 mM (30 mM for some solutes due to solubility), total [3H]CQ transport, normalised to the oocyte type control): 100 ± 3.5%; activity at 5000 µM (PfCRT^Ecu1110 [2]; read-out: Uptake of [3H]CQ (% PfCRTDd2 control), trans-stimulation, PfCRTEcu1110, total [3H]CQ transport, [test solute]i = 5 mM (intracellular), mean ± SEM, SEM): 35 ± 1.3%; activity at 45000 µM (PfCRT^Ecu1110 [2]; read-out: Uptake of [3H]CQ (% PfCRTDd2 control), trans-stimulation, PfCRTEcu1110, total [3H]CQ transport, [test solute]i = 45 mM (intracellular; 30 mM for some solutes due to solubility), mean ± SEM, SEM): 36 ± 1.7%; activity at 5000 µM (PfNT1; PfNT1 oocytes, [test solute]i = 5 mM, normalised to the oocyte type control, read-out: Uptake of [3H]CQ (% PfNT1 control), trans-stimulation): 100 ± 3.8%; activity at 45000 µM (PfNT1; SEM, read-out: Uptake of [3H]CQ (% PfCRTDd2 control), trans-stimulation, PfNT1): 2.3 ± 0.09%; activity at 45000 µM (PfNT1; read-out: Uptake of [3H]CQ (% PfNT1 control), trans-stimulation): 98 ± 3.3%; activity at 5000 µM (PfNT1; [test solute]i = 5 mM (intracellular), mean ± SEM, SEM, read-out: Uptake of [3H]CQ (% PfCRTDd2 control), trans-stimulation, PfNT1): 3%; Tested as potential co-substrate but not required for influx of VF-6 via PfCRT into the oocyte (PfCRT [3]): X; Tested as potential co-substrate but not required for influx of VF-6 via PfCRT into the oocyte (PfCRT [4]): X
